Measured values as given in patent US8273562B2, “Method for producing 4-hydroxy-L-isoleucine” (Ajinomoto Co., Inc., priority 2006, dated 2012).

B1: L-Ile hydroxylase: L-isoleucine dioxygenase purified from Bacillus thuringiensis strain 2-e-2, SEQ ID NO: 2 (protein, listed as Bacillus thuringiensis)
chain: KMSGFSIEEKVHEFESKGFLEISNEIFLQEEENHSLLTQAQLDYYNLEDDAYGECRARSYSRYIKYVDSPDYILDNSNDYFQSKEYNYDDGGKVRQFNSINDSFLCNPLIQNIVRFDTEFAFKTNIIDKSKDLIIGLHQVRYKATKERPSFSSPIWLHKDDEPVVFLHLMNLSNTAIGGDNLIANSPREINQFISLKEPLETLVFGQKVFHAVTPLGTECSTEAFRDILLVTFSYKETK

Assays:
[1] = test system: isolated perfused rat pancreas; details: stimulating effect dependent on plasma glucose concentrations; cited from earlier work
human pancreatic islets = details: stimulating effect dependent on plasma glucose concentrations; cited from earlier work
[2] = Optimum pH, optimum temperature and temperature stability of purified L-Ile hydroxylase; type: biochemical, Bacillus thuringiensis; details: enzyme solution pH 7.0 incubated 1 hour at 0 to 70° C.
Method: By using L-Ile hydroxylase prepared as described in Example 2, pH dependency on the producing of the 4-hydroxyisoleucine was evaluated. The enzymatic reaction solution contained 5 mM L-Ile, 5 mM Fe^2+, 5 mM 2-oxoglutaric acid, 5 mM ascorbic acid and 200 mM GTA (pH 3 to 12). The reaction temperature was 30° C. […] Production of a large amount was confirmed at pH 4 to 8, and production of the most 4-hydroxyisoleucine was confirmed at pH 5 to 8.
By using L-Ile hydroxylase prepared as described in Example 2, the optimum temperature of the 4-hydroxyisoleucine production activity was evaluated. The enzymatic reaction solution contained 5 mM Ile, 5 mM Fe^2+, 5 mM 2-oxoglutaric acid, 5 mM ascorbic acid, and 100 mM HEPES (pH 6). […] High production was confirmed for the temperature range of 0 to 40° C.
By using L-Ile hydroxylase prepared as described in Example 2, the temperature stability during production of 4-hydroxyisoleucine was evaluated. The enzyme solution at pH 7.0 was incubated at 0 to 70° C. for 1 hour, and then the Ile hydroxylation activity was measured. The enzymatic reaction solution contained 5 mM Ile, 5 mM Fe^2+, 5 mM 2-oxoglutaric acid, 5 mM ascorbic acid, and 100 mM HEPES (pH 6), and the reaction temperature was 30° C. These values are relative to the storage temperature which produced the maximum amount of hydroxyisoleucine, which was set as 100%. […]

[3] = IDO activity assay in crude cell lysate of recombinant E. coli strains; type: biochemical, Escherichia coli
Method: 2.4. The IDO activity assay in crude cell lysate of TG1[pMW119-IDO(Lys, 23) and TG1[pMW119-IDO(Lys, 32): To investigate the IDO activity in crude cell lysates of recombinant E. coli strains, the following procedures were carried out. Cells from 5 ml of culture were harvested by centrifugation at 4° C., re-suspended in 0.5 ml of buffer A*(50 mM TRIZMA, 5% glycerol, 1 mM EDTA, 1 mM DTT, pH 7 adjusted by HCl) and disrupted by sonication at 4° C. The reaction mixture (50 μl) contained 50 mM HEPES pH 7.0, 5 mM Ile, 0.5 mM α-ketoglutarate, 5 mM ascorbate, 5 mM FeSO4, and an aliquot of the protein preparation. The reaction was incubated at 34° C. for 1 hour with shaking. The synthesized 4HIL was detected using TLC or HPLC analysis as described in Example 4.

| Molecule | insulinotropic activity [1] | insulinotropic activity (human pancreatic islets) | temperature at which enzyme was inactivated [2] [°C] | IDO activity in comparison with IDO(Lys,32) [3] [times] |
| --- | --- | --- | --- | --- |
| C[C@@H]([C@H](C)O)[C@H](N)C(=O)O [4-Hydroxy-L-isoleucine, (2S,3R,4S)-4-hydroxy-L-isoleucine] | insulinotropic activity | insulinotropic activity |  |  |
| B1 |  |  | ≥ 60 | 5 |
